Data from patent US11446287B2, “Compounds and methods for EP300 or CBP modulation and indications therefor” (Opna Immuno-Oncology SA, priority 2019, dated 2022).

What follows are compounds tested against T1, Recombinant human BRD4 containing dual bromodomains (BRD4-BD12 (1-477)) (Homo sapiens, UniProt O60885) (assay: BRD4 Alphascreen binding assay).
T1 construct: Recombinant human BRD4 containing dual bromodomains (BRD4-BD12 (1-477)); made in house; host or cells: E. coli BL21-CodonPlus (DE3), modified pET vector
Method in brief: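 His-tagged human BRD4 tandem bromodomains (1-477, E. coli) incubated 1 h at room temperature with biotinylated tetra-acetylated H4 (1-21) peptide and compound in HEPES pH 7.5 buffer with 2 mM DTT. AlphaScreen signal read 30 min after adding beads (7.5 μg/ml); IC50 from four-parameter fit after normalization to controls.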

Compared with `CCOc1nc(C(=O)O)ccc1-c1cn(C2(C)CCOCC2)c2ncc(-c3c(C)noc3C)cc12` [P-0405, 5-(5-(3,5-dimethylisoxazol-4-yl)-1-(4-methyltetrahydro-2H-pyran-4-yl)-1H-pyrrolo[2,3-b]pyridin-3-yl)-6-ethoxypicolinic acid], `Cc1noc(C)c1-c1cnc2c(c1)c(-c1ccc(C(=O)O)cc1OC(C)C)cn2C1(C)CCOC1` (stereo not shown) [P-0407, 4-(5-(3,5-dimethylisoxazol-4-yl)-1-(3-methyltetrahydrofuran-3-yl)-1H-pyrrolo[2,3-b]pyridin-3-yl)-3-isopropoxybenzoic acid] is higher in IC50: 1 to 8 µM for the first, 8 to 1000 µM for the second. The first is the more potent here.

`CCOc1nc(C(=O)O)c(Cl)cc1-c1cn([C@H]2CCOC2)c2ncc(-c3c(C)noc3C)cc12` [P-0406, (S)-3-chloro-5-(5-(3,5-dimethylisoxazol-4-yl)-1-(tetrahydrofuran-3-yl)-1H-pyrrolo[2,3-b]pyridin-3-yl)-6-ethoxypicolinic acid] and `CCOc1nc(C(=O)O)cc(C)c1-c1cn(C2CCOCC2)c2ncc(-c3c(C)noc3C)cc12` [P-0411, 5-(5-(3,5-dimethylisoxazol-4-yl)-1-(tetrahydro-2H-pyran-4-yl)-1H-pyrrolo[2,3-b]pyridin-3-yl)-6-ethoxy-4-methylpicolinic acid] fall in the same range of IC50: 8 to 1000 µM for the first, 8 to 1000 µM for the second.

Compared with `Cc1noc(C)c1-c1cnc2c(c1)c(-c1c(Cl)cc(C(=O)O)cc1OC(C)C)cn2C1(C)CCOC1` (stereo not shown) [P-0408, 3-chloro-4-(5-(3,5-dimethylisoxazol-4-yl)-1-(3-methyltetrahydrofuran-3-yl)-1H-pyrrolo[2,3-b]pyridin-3-yl)-5-isopropoxybenzoic acid], `Cc1noc(C)c1-c1cnc2c(c1)c(-c1c(Cl)cc(C(=O)O)cc1OC1CC1)cn2-c1ncccc1C#N` [P-0409, 3-chloro-4-(1-(3-cyanopyridin-2-yl)-5-(3,5-dimethylisoxazol-4-yl)-1H-pyrrolo[2,3-b]pyridin-3-yl)-5-cyclopropoxybenzoic acid] is lower in IC50: 8 to 1000 µM for the first, 1 to 8 µM for the second.

First: Cc1noc(C)c1-c1cnc2c(c1)c(-c1c(F)cc(C(=O)O)cc1OC1CCC1)cn2C1CCOCC1 [P-0410, 3-cyclobutoxy-4-(5-(3,5-dimethylisoxazol-4-yl)-1-(tetrahydro-2H-pyran-4-yl)-1H-pyrrolo[2,3-b]pyridin-3-yl)-5-fluorobenzoic acid]
Second: CCOc1cc(C(=O)O)ncc1-c1cn(C2CCOCC2)c2ncc(-c3c(C)noc3C)cc12 [P-0428, 5-(5-(3,5-dimethylisoxazol-4-yl)-1-(tetrahydro-2H-pyran-4-yl)-1H-pyrrolo[2,3-b]pyridin-3-yl)-4-ethoxypicolinic acid]
The IC50 of the first is higher: 8 to 1000 µM for the first, 0.0001 to 1 µM for the second. The second is the more potent here.

First: CCOc1nc(C(=O)O)cc(C)c1-c1cn(-c2ccc(F)cc2F)c2ncc(-c3c(C)noc3C)cc12 [P-0412, 5-(1-(2,4-difluorophenyl)-5-(3,5-dimethylisoxazol-4-yl)-1H-pyrrolo[2,3-b]pyridin-3-yl)-6-ethoxy-4-methylpicolinic acid]
Second: CCOc1cc(C(=O)OC)nc(OCC)c1-c1cn(-c2ccc(F)cc2F)c2ncc(-c3c(C)noc3C)cc12 [P-0432, methyl 5-(1-(2,4-difluorophenyl)-5-(3,5-dimethylisoxazol-4-yl)-1H-pyrrolo[2,3-b]pyridin-3-yl)-4,6-diethoxypicolinate]
The IC50 of the first is lower: 1 to 8 µM for the first, 8 to 1000 µM for the second. The first is the more potent here.

First: Cc1nnn(C)c1-c1cnc2c(c1)c(-c1ccc(C(=O)O)cc1OC1CC1)cn2C1CCOCC1 [P-0413, 3-cyclopropoxy-4-(5-(1,4-dimethyl-1H-1,2,3-triazol-5-yl)-1-(tetrahydro-2H-pyran-4-yl)-1H-pyrrolo[2,3-b]pyridin-3-yl)benzoic acid]
Second: Cc1noc(C)c1-c1cnc2c(c1)c(-c1ccnc(C(=O)O)c1C)cn2C1CCOCC1 [P-0419, 4-(5-(3,5-dimethylisoxazol-4-yl)-1-(tetrahydro-2H-pyran-4-yl)-1H-pyrrolo[2,3-b]pyridin-3-yl)-3-methylpicolinic acid]
The IC50 of the first is higher: 1 to 8 µM for the first, 0.0001 to 1 µM for the second.

`CCOc1cc(C(=O)O)nc(OCC)c1-c1cn(-c2ccccc2F)c2ncc(-c3c(C)noc3C)cc12` [P-0414, 5-(5-(3,5-dimethylisoxazol-4-yl)-1-(2-fluorophenyl)-1H-pyrrolo[2,3-b]pyridin-3-yl)-4,6-diethoxypicolinic acid] and `CCOc1cc(C(=O)O)nc(OCC)c1-c1cn(-c2ccc(C#N)cc2F)c2ncc(-c3c(C)noc3C)cc12` [P-0423, 5-(1-(4-cyano-2-fluorophenyl)-5-(3,5-dimethylisoxazol-4-yl)-1H-pyrrolo[2,3-b]pyridin-3-yl)-4,6-diethoxypicolinic acid] fall in the same range of IC50: 1 to 8 µM for the first, 1 to 8 µM for the second.

First: CCOc1cc(C(=O)O)nc(OCC)c1-c1cn([C@@H](C)c2ccccn2)c2ncc(-c3c(C)noc3C)cc12 [P-0415, (S)-5-(5-(3,5-dimethylisoxazol-4-yl)-1-(1-(pyridin-2-yl)ethyl)-1H-pyrrolo[2,3-b]pyridin-3-yl)-4,6-diethoxypicolinic acid]
Second: CCOc1cc(C(=O)O)nc(OCC)c1-c1cn(-c2cccnc2)c2ncc(-c3c(C)noc3C)cc12 [P-0436, 5-(5-(3,5-dimethylisoxazol-4-yl)-1-(pyridin-3-yl)-1H-pyrrolo[2,3-b]pyridin-3-yl)-4,6-diethoxypicolinic acid]
The IC50 of the first is higher: 8 to 1000 µM for the first, 1 to 8 µM for the second. The second is the more potent here.

`CCOc1nc(C(=O)O)c(C)cc1-c1cn(C(C2CC2)C2CC2)c2ncc(-c3c(C)noc3C)cc12` [P-0416, 5-(1-(dicyclopropylmethyl)-5-(3,5-dimethylisoxazol-4-yl)-1H-pyrrolo[2,3-b]pyridin-3-yl)-6-ethoxy-3-methylpicolinic acid] and `CCOc1nc(C(=O)O)cc(C)c1-c1cn(C(C2CC2)C2CC2)c2ncc(-c3c(C)noc3C)cc12` [P-0417, 5-(1-(dicyclopropylmethyl)-5-(3,5-dimethylisoxazol-4-yl)-1H-pyrrolo[2,3-b]pyridin-3-yl)-6-ethoxy-4-methylpicolinic acid] fall in the same range of IC50: 8 to 1000 µM for the first, 8 to 1000 µM for the second.

First: Cc1noc(C)c1-c1cnc2c(c1)c(-c1ccnc(C(=O)O)c1C)cn2C(C1CC1)C1CC1 [P-0418, 4-(1-(dicyclopropylmethyl)-5-(3,5-dimethylisoxazol-4-yl)-1H-pyrrolo[2,3-b]pyridin-3-yl)-3-methylpicolinic acid]
Second: CCOc1cc(C(=O)O)ncc1-c1cn(C(C2CC2)C2CC2)c2ncc(-c3c(C)noc3C)cc12 [P-0427, 5-(1-(dicyclopropylmethyl)-5-(3,5-dimethylisoxazol-4-yl)-1H-pyrrolo[2,3-b]pyridin-3-yl)-4-ethoxypicolinic acid]
The IC50 of the first is lower: 0.0001 to 1 µM for the first, 1 to 8 µM for the second.

`CCOc1cc(C(=O)O)nc(OCC)c1-c1cn(C(C2CC2)C2CC2)c2ncc(-c3c(C)noc3C)cc12` [P-0420, 5-(1-(dicyclopropylmethyl)-5-(3,5-dimethylisoxazol-4-yl)-1H-pyrrolo[2,3-b]pyridin-3-yl)-4,6-diethoxypicolinic acid] and `CCOc1cc(C(=O)O)nc(OCC)c1-c1cn(C2CCC(F)(F)CC2)c2ncc(-c3c(C)noc3C)cc12` [P-0425, 5-(1-(4,4-difluorocyclohexyl)-5-(3,5-dimethylisoxazol-4-yl)-1H-pyrrolo[2,3-b]pyridin-3-yl)-4,6-diethoxypicolinic acid] fall in the same range of IC50: 8 to 1000 µM for the first, 8 to 1000 µM for the second.

`CCOc1cc(C(=O)O)nc(OCC)c1-c1cn(-c2ncccc2C#N)c2ncc(-c3c(C)noc3C)cc12` [P-0421, 5-(1-(3-cyanopyridin-2-yl)-5-(3,5-dimethylisoxazol-4-yl)-1H-pyrrolo[2,3-b]pyridin-3-yl)-4,6-diethoxypicolinic acid] and `CCOc1cc(C(=O)O)nc(OCC)c1-c1cn(-c2ncccc2C(N)=O)c2ncc(-c3c(C)noc3C)cc12` [P-0422, 5-(1-(3-carbamoylpyridin-2-yl)-5-(3,5-dimethylisoxazol-4-yl)-1H-pyrrolo[2,3-b]pyridin-3-yl)-4,6-diethoxypicolinic acid] fall in the same range of IC50: 8 to 1000 µM for the first, 8 to 1000 µM for the second.

`CCOc1cc(C(=O)O)nc(OCC)c1-c1cn(-c2cnc(C3CC3)nc2)c2ncc(-c3c(C)noc3C)cc12` [P-0424, 5-(1-(2-cyclopropylpyrimidin-5-yl)-5-(3,5-dimethylisoxazol-4-yl)-1H-pyrrolo[2,3-b]pyridin-3-yl)-4,6-diethoxypicolinic acid] and `CCOc1cc(C(=O)O)nc(OCC)c1-c1cn(-c2cn(CC)nc2C)c2ncc(-c3c(C)noc3C)cc12` [P-0430, 5-(5-(3,5-dimethylisoxazol-4-yl)-1-(1-ethyl-3-methyl-1H-pyrazol-4-yl)-1H-pyrrolo[2,3-b]pyridin-3-yl)-4,6-diethoxypicolinic acid] fall in the same range of IC50: 1 to 8 µM for the first, 1 to 8 µM for the second.

`CCOc1cc(C(=O)O)nc(OCC)c1-c1cn(-c2cn(C(F)F)nc2C)c2ncc(-c3c(C)noc3C)cc12` [P-0429, 5-(1-(1-(difluoromethyl)-3-methyl-1H-pyrazol-4-yl)-5-(3,5-dimethylisoxazol-4-yl)-1H-pyrrolo[2,3-b]pyridin-3-yl)-4,6-diethoxypicolinic acid] and `CCOc1cc(C(=O)O)nc(OCC)c1-c1cn(C2CCN(S(C)(=O)=O)CC2)c2ncc(-c3c(C)noc3C)cc12` [P-0435, 5-(5-(3,5-dimethylisoxazol-4-yl)-1-(1-(methylsulfonyl)piperidin-4-yl)-1H-pyrrolo[2,3-b]pyridin-3-yl)-4,6-diethoxypicolinic acid] fall in the same range of IC50: 8 to 1000 µM for the first, 8 to 1000 µM for the second.

First: CCOc1cc(C(=O)O)nc(OCC)c1-n1cc(-c2ccc(F)cc2F)c2ncc(-c3c(C)noc3C)cc21 [P-0431, 5-(3-(2,4-difluorophenyl)-6-(3,5-dimethylisoxazol-4-yl)-1H-pyrrolo[3,2-b]pyridin-1-yl)-4,6-diethoxypicolinic acid]
Second: CCOc1cc(C(=O)O)nc(OCC)c1-c1cn(C2CCN(C(=O)OC(C)(C)C)CC2)c2ncc(-c3c(C)noc3C)cc12 [P-0433, 5-(1-(1-(tert-butoxycarbonyl)piperidin-4-yl)-5-(3,5-dimethylisoxazol-4-yl)-1H-pyrrolo[2,3-b]pyridin-3-yl)-4,6-diethoxypicolinic acid]
The IC50 of the first is lower: 1 to 8 µM for the first, 8 to 1000 µM for the second. The first is the more potent here.

`Cc1noc(C)c1-c1cnc2c(c1)c(C1CCC(C(=O)O)CC1)cn2-c1ccc(F)cc1F` (stereo not shown) [P-0434, 4-(1-(2,4-difluorophenyl)-5-(3,5-dimethylisoxazol-4-yl)-1H-pyrrolo[2,3-b]pyridin-3-yl)cyclohexane-1-carboxylic acid] showed an IC50 of 1 to 8 µM.
